# Experiments:
# Type in all cases: in vivo, human
# [1] = Logistic regression of dose reduction/discontinuation vs predicted exposure
# Method: (§1) Data were collected and processed using Microsoft Excel 2016 Version 16.0 (Microsoft Corporation, Redmond, WA, USA). Statistical calculations and visualization of results were performed with R Studio Version 1.2.5042 (RStudio Incorporation, Boston, MA, USA) running R version 4.0.5 (R Foundation for Statistical Computing, Vienna, Austria, 2020). For further analysis, serum concentrations were divided into groups according to time interval post-dose as follows: 0–5 h, 5–10 h, 10–14 h, and >14 h for (hydroxy-)dabrafenib and 0–10 h, 10–20 h, 20–30 h, and >30 h for trametinib. Concentrations < LLOQ were excluded from further statistical analyses. The concentrations of the same patient at the same dosage and within the same post-dose group were summarized into an individual mean serum concentration for descriptive statistical analysis to account for potential bias caused by the unbalanced number of samples per patient. […] The Wilcoxon […] test was used for unpaired samples. The correlations between individual PK parameters sampled from the conditional distribution during the generation of EBE (methods for estimation see below) and age, sex, body mass index (BMI), and co-medication were analyzed using analysis of variance (ANOVA) and Spearman’s correlation coefficient. Logistic regression was used to compare the risk of treatment discontinuations or dose reductions (dabrafenib dose reduction or discontinuation, trametinib dose reduction or discontinuation, or any dose reduction or discontinuation) with the corresponding predicted trough concentrations and area under the curve of a dosing interval (AUCτ) of dabrafenib, hydroxy-dabrafenib, and trametinib as well as with the composite predicted dabrafenib/hydroxy-dabrafenib trough concentration and with composite dabrafenib/hydroxy-dabrafenib AUCτ assuming standard dosing. The Hosmer–Lemeshow test was used to evaluate the goodness of fit for our logistic regression model. Due to the explorative nature of the study, p-values obtained from multiple comparisons were not corrected for multiple testing. A p-value < 0.05 was considered statistically significant.
# [2] = Observed steady-state serum concentrations (LC-MS/MS) in melanoma patients
# Method: Serum samples were collected regularly during each routine outpatient visit from study enrollment until January 2022 or until treatment discontinuation. If possible, blood sampling was performed before the next drug administration, but any time interval between the last administration and blood withdrawal was accepted. The steady-state was assumed after continuous dosing for fourteen days for both compounds.
# Hydroxy-dabrafenib concentrations were analyzed using a different previously published LC-MS/MS method with an LLOQ of 10 ng/mL [37]. […] Hydroxy-dabrafenib was not quantified in capillary blood samples as the methodology was not available at the time of analysis. All the methods have been validated according to the guidelines of the U.S. Food and Drug Administration and/or the European Medicines Agency.
# as §1
# [3] = popPK model-informed VAMS-to-serum conversion model (self-sampled capillary blood); conditions: for Ind Kbp: MAP estimate from at least one paired sample; for Ind CL/F / Ind Q/F: at-home VAMS, MAP estimate
# Method: In addition to serum sampling, patients were asked to participate in the sampling of capillary blood in the clinic and at home. Micro-sampling was not obligatory for enrollment in the study. Micro-sampling was performed from a finger by drawing 20 µL of capillary blood onto the VAMS device MITRA® purchased from Neoteryx (Torrance, CA, USA). During outpatient visits, micro-sampling was conducted by medical staff in parallel to serum sampling. A maximum of six corresponding serum/VAMS samples were collected per patient. Additionally, patients were asked to perform at-home sampling after being instructed by trained staff. For each at-home sampling occasion, patients received a set including four VAMS devices. Patients were instructed to perform sampling at four different time points during the following four time slots: 9 a.m.–12 p.m., 12–3 p.m., 3–6 p.m., and 6–9 p.m. […] Samples collected during different time slots were still accepted. The time of last drug administration and sampling times were self-documented on a specific form. No special storage conditions were specified, and patients were asked to keep samples at ambient temperature until shipment. Samples were sent to the laboratory in an airtight and opaque bag containing desiccant for analysis. At-home samples were collected at up to four occasions per patient. Hematocrit was documented from the results of routine blood withdrawal for VAMS samples collected during outpatient visits. For at-home samples, the last known hematocrit was used. […]
# The conversion was based on a hematocrit-dependent formula (Figure 1). […] As proposed by Iacuzzi et al., the blood cell to plasma partition coefficient (Kbp) and intraindividual variability (IIV) were included in the conversion model and estimated from the consolidated data (Figure 1). For this purpose and to evaluate the conversion models, all the serum (Supplementary Table S1) and VAMS concentrations (collected at home or in the clinic) (Supplementary Table S2) were consolidated in a single dataset and fitted to the combined model using the EBE in Monolix 2021R1 (Lixoft SAS, Antony, France). Incorrectly sampled VAMS were removed from the dataset. The resulting individual predicted VAMS concentrations were compared with the observed VAMS concentrations. […] For trametinib, at least one paired sample per patient was included to generate the individual estimate for Kbp. A visual predictive check was performed to evaluate the predictive performance of the method.
# Figure 1 Development of the population pharmacokinetic (popPK) model-informed VAMS-to-serum conversion model. PopPK models by Balakirouchenane et al. were used to generate serum maximum a posteriori (MAP) estimates from volumetric absorptive micro-sampling (VAMS) for dabrafenib (A) and trametinib (B).
# [4] = standard dose, BMI (kg/m2) < 30
# [5] = standard dose, BMI (kg/m2) >= 30
# [6] = standard dose, P-gp inducer: no
# [7] = standard dose, P-gp inducer: yes
# [8] = standard dose, P-gp inhibitor: no
# [9] = standard dose, P-gp inhibitor: yes
# [10] = standard dose, age above 65: no
# [11] = standard dose, age above 65: yes
smiles,measurement,setting,value
CC(=O)Nc1cccc(-n2c(=O)n(C3CC3)c(=O)c3c(Nc4ccc(I)cc4F)n(C)c(=O)c(C)c32)c1 [trametinib],relationship between dose reduction or discontinuation due to AE and predicted serum trough concentrations or AUCτ,"[1]; logistic regression, standard dosing assumed",no significant relationships
same,effect of Cmin on probability of dose reduction or treatment discontinuation (logistic regression),"[1]; predicted trough concentration as exposure surrogate, intercept -0.349, p-value 0.0798",0.06178
same,median of mean trough concentration,"[2]; serum, 2 mg q24h",11.2 ng/mL
same,range of mean trough concentration,"[2]; serum, 2 mg q24h",6.22 to 15.9 ng/mL
same,effect of co-medication with at least one P-gp inducer on individual mean trough concentrations,"[2]; serum, standard dose",significant decrease
same,serum Cmin mean,[2]; [4],11.2 ng/mL
same,serum Cmin median,[2]; [4],11.4 ng/mL
same,serum Cmin mean,[2]; [5],9.93 ng/mL
same,serum Cmin median,[2]; [5],9.79 ng/mL
same,serum Cmin mean,[2]; [6],11.5 ng/mL
same,serum Cmin median,[2]; [6],11.7 ng/mL
same,serum Cmin mean,[2]; [7],9.3 ng/mL
same,serum Cmin median,[2]; [7],9.68 ng/mL
same,serum Cmin mean,[2]; [8],10.9 ng/mL
same,serum Cmin median,[2]; [8],11.3 ng/mL
same,serum Cmin mean,[2]; [9],10.5 ng/mL
same,serum Cmin median,[2]; [9],10.9 ng/mL
same,serum Cmin mean,"[2]; standard dose, PPI: no",10.8 ng/mL
same,serum Cmin median,"[2]; standard dose, PPI: no",11.5 ng/mL
same,serum Cmin mean,"[2]; standard dose, PPI: yes",10.7 ng/mL
same,serum Cmin median,"[2]; standard dose, PPI: yes",10.9 ng/mL
same,serum Cmin mean,[2]; [10],10.6 ng/mL
same,serum Cmin median,[2]; [10],11.3 ng/mL
same,serum Cmin mean,[2]; [11],10.9 ng/mL
same,serum Cmin median,[2]; [11],10.9 ng/mL
same,serum Cmin mean,"[2]; standard dose, sex female",11.1 ng/mL
same,serum Cmin median,"[2]; standard dose, sex female",11.3 ng/mL
same,serum Cmin mean,"[2]; standard dose, sex male",10.6 ng/mL
same,serum Cmin median,"[2]; standard dose, sex male",11.2 ng/mL
same,Ind Kbp,[3]; patient DT002,4.84
same,Ind Kbp,[3]; patient DT010,4.98
same,Ind Kbp,[3]; patient DT014,5.36
same,Ind Kbp,[3]; patient DT018,3.89
same,Ind Kbp,[3]; patient DT019,3.91
same,Ind Kbp,[3]; patient DT026,4.38
same,Ind Kbp,[3]; patient DT027,4.41
same,Ind CL/F,"[3]; patient DT002, 2 mg/24 h",6.07 L/h
same,Ind Q/F,"[3]; patient DT002, 2 mg/24 h",97.65 L/h
same,Ind CL/F,"[3]; patient DT010, 2 mg/24 h",6.63 L/h
same,Ind Q/F,"[3]; patient DT010, 2 mg/24 h",125.55 L/h
same,Ind CL/F,"[3]; patient DT014, 2 mg/24 h",8.36 L/h
same,Ind Q/F,"[3]; patient DT014, 2 mg/24 h",129.17 L/h
same,Ind CL/F,"[3]; patient DT018, 1 mg/24 h",3.52 L/h
same,Ind Q/F,"[3]; patient DT018, 1 mg/24 h",185.04 L/h
same,Ind CL/F,"[3]; patient DT019, 1.5 mg/24 h",3.79 L/h
same,Ind Q/F,"[3]; patient DT019, 1.5 mg/24 h",77.82 L/h
same,Ind CL/F,"[3]; patient DT026, 2 mg/24 h",6.25 L/h
same,Ind Q/F,"[3]; patient DT026, 2 mg/24 h",106.5 L/h
same,Ind CL/F,"[3]; patient DT027, 2 mg/24 h",6.95 L/h
same,Ind Q/F,"[3]; patient DT027, 2 mg/24 h",65.04 L/h
same,population value for Kbp (blood cell to plasma partition coefficient),[3]; estimated from combined serum and VAMS dataset,4.62
same,IIV of ωKbp,[3]; extended trametinib model,0.31
